# Measurements reported in ChEMBL document CHEMBL3046547, “Pyrethroid resistance in the tomato red spider mite, Tetranychus evansi, is associated with mutation of the para-type sodium channel” (2011).
# How the values were obtained:
# Assay type in all cases: functional
# [1] = system: Tetranychus urticae; assay: Insecticidal activity against Tetranychus urticae LS-VL (two-spotted spider mite)
# [2] = system: Tetranychus evansi; assay: Insecticidal activity against Tetranychus evansi R2 in clean French bean leaf assessed as mortality at 26 degC and 16 hr day length measured after 48 hr by microimmersion protocol
# [3] = system: Tetranychus evansi; assay: Insecticidal activity against Tetranychus evansi R1 in clean French bean leaf assessed as mortality at 26 degC and 16 hr day length measured after 48 hr by microimmersion protocol
# [4] = system: Tetranychus evansi; assay: Insecticidal activity against Tetranychus evansi TOR in clean French bean leaf assessed as mortality at 26 degC and 16 hr day length measured after 48 hr by microimmersion protocol
# [5] = system: Tetranychus evansi; assay: Insecticidal activity against Tetranychus evansi ST JEA in clean French bean leaf assessed as mortality at 26 degC and 16 hr day length measured after 48 hr by microimmersion protocol
# [6] = system: Tetranychus urticae; assay: Insecticidal activity against Tetranychus urticae (two-spotted spider mite)
Compound,LC50 [1] [µg/mL],LC50 [2] [µg/mL],LC50 [3] [µg/mL],LC50 [4] [µg/mL],LC50 [5] [µg/mL],LC50 [6] [µg/mL]
Cc1c(COC(=O)[C@@H]2[C@H](/C=C(\Cl)C(F)(F)F)C2(C)C)cccc1-c1ccccc1 (relative stereo) [BIFENTHRIN],5.5,3560,1860,92,135,–
CC[C@H](C)[C@H]1O[C@]2(C=C[C@@H]1C)C[C@@H]1C[C@@H](C/C=C(\C)[C@@H](O[C@H]3C[C@H](OC)[C@@H](O[C@H]4C[C@H](OC)[C@@H](O)[C@H](C)O4)[C@H](C)O3)[C@@H](C)/C=C/C=C3\CO[C@@H]4[C@H](O)C(C)=C[C@@H](C(=O)O1)[C@]34O)O2.CO[C@H]1C[C@H](O[C@H]2[C@H](C)O[C@@H](O[C@@H]3/C(C)=C/C[C@@H]4C[C@@H](C[C@]5(C=C[C@H](C)[C@@H](C(C)C)O5)O4)OC(=O)[C@@H]4C=C(C)[C@@H](O)[C@H]5OC/C(=C\C=C\[C@@H]3C)[C@]54O)C[C@@H]2OC)O[C@@H](C)[C@@H]1O [ABAMECTIN],–,0.19,0.18,0.24,0.23,–
CCOP(=S)(OCC)Oc1nc(Cl)c(Cl)cc1Cl [CHLORPYRIFOS],–,4380,3780,4530,3760,4
